In patent US10538544B1, “Method for administering cisplatin and a thiocyanate complex to treat ovarian cancer” (priority 2018, dated 2020):

Experiments:
[1] = test system: A2780 S (cisplatin sensitive) human ovarian tumor cell line; test: MTT assay, cell viability, 72 h, A2780 S; assay type: cell-based; settings: read-out: IC50 Values against A2780 S
Procedure: (§1) MTT assay. The IC50 values in 72 hours of the compounds on human ovarian tumor cell lines, A2780 S (cisplatin sensitive) and A2780 CR (cisplatin resistance) were identified by cell viability test. 6000 cells per well in 100 μL cell media were seeded. After 24 h, all supernatant was aspirated out. Then 200 μL of drug solution is added to the first column of each well, and 100 μL of medium were added into the remaining well. The 100 μL of drug solution from first column was taken and mix well with the next column by repeated pipetting using a multichannel pipettor. The last two columns were leaved without drug addition to serve as blank control. After 72 h, supernatants in each well was replaced with 100 μL of 10% MTT (3-(4,5-dimethylthiazol-2-yl)-2,5-diphenyltetrazolium bromide) tetrazolium reduction assay solution, and incubated for at least 45 minutes at 37° C. After aspirating incubated solution, 100 μL of DMSO was added into each well to dissolve formazan crystals. The plates were then read using plate reader at 570 nm. The in vitro cytotoxicity of three platinum complexes (1), (2) and (3) was evaluated against a pair human ovarian tumor cell lines, A2780 S (cisplatin sensitive) and A2780 CR (cisplatin resistant). For comparison, anticancer activity of cisplatin was also evaluated under the same conditions. The IC50 values and cell viability curves are shown in Table 3 and FIG. 5 respectively.

[2] = test system: A2780 CR (cisplatin resistant) human ovarian tumor cell line; test: MTT assay, cell viability, 72 h, A2780 CR; assay type: cell-based; settings: for IC50: MTT, 72 h, A2780 CR (cisplatin resistant), read-out: IC50 Values against A2780 CR; for Resistance factor: calculated from IC50 in A2780 CR and A2780 S
Procedure: as §1

[3] = background, literature; cited from earlier work
[4] = background, literature; cited from earlier work; remark: listed apart in the source

Row | Molecule | IC50 [1] | IC50 [2] | Resistance factor [2] | cytotoxicity compared with cisplatin against A2780 CR cells ([2]; A2780 CR cells, in words) | effectiveness as antiproliferative agent compared with cisplatin [3] | renal toxicity compared with cisplatin [4]
1 | CC(C)N(C(=S)[S-])C(C)C.CC(C)N(C(=S)[S-])C(C)C.[Pt+2] [(3), [Pt(S2CN^i Pr2)2]] | 8.92 ± 0.58 µM | 8.83 ± 0.83 µM | 1.00 |  |  | 
2 | CC(C)CN(CC(C)C)C(=S)[S-].CC(C)CN(CC(C)C)C(=S)[S-].[Pt+2] [(1), [Pt(S2CN^i Bu2)2]] | 5 ± 0.097 µM | 5.91 ± 0.92 µM | 1.18 | better cytotoxicity than cisplatin |  | 
3 | N.N.[Cl][Pt][Cl] [Cisplatin] | 0.33 ± 0.011 µM | 6.37 ± 1 µM | 19.20 |  |  | 
4 | [Pt(S2CNBn2)2].py [(2)] | 16.4 ± 1.35 µM | 15 ± 1.21 µM | 0.92 |  |  | 
5 | [Pt(ESDT)(Py)Cl] |  |  |  |  | more effective as antiproliferative agent than cisplatin | much lower renal toxicity
